Entries after “also recorded” stand apart in the source; their conditions may differ.
Tests used:
Assay type in all cases: physicochemical
[1] = Polymorphism of API before and after electrospinning (XRD, DSC); settings: free-surface electrospinning from PVP/ethanol suspension
Method: Scanning electron microscopy (SEM) was used to analyze the morphology of the fibers. A Quorum Technologies SC7640 high resolution gold/palladium sputter coater was used to coat the samples, and a JEOL 6060 SEM at 5 kV operating voltage was used to obtain images. Both X-ray diffraction (XRD) and differential scanning calorimetry (DSC) were used to confirm the presence of crystals and analyze the polymorph present in the electrospun fibers. XRD was performed on a PANalytical X′Pert Pro with a reflection-transmission spinner PW 3064/60 sample stage and a Cu X-ray source with a 1.54 Å wavelength. DSC was performed on a TA DSC Q2000 instrument using a 2-6 mg sample in an aluminum sample pan. The materials were heated at 10° C./min to 250° C. and 200° C. for ABZ and FAM, respectively.

[2] = Drug loading in electrospun fibers by UV-vis spectroscopy; settings: 1:2 API:PVP, nominal API loading 33 wt %; average of three measurements
Method: In order to determine the actual drug loading in the electrospun fibers, samples were analyzed with a Perkin-Elmer (Waltham, Mass.) double-beam Lambda25 UV-vis spectrophotometer. A standard curve was prepared for ABZ in methanol for concentrations from 0.005 mg/mL to 0.05 mg/mL at an absorbance of 295 nm and for FAM in methanol for concentrations from 0.002 mg/mL to 0.035 mg/mL at an absorbance of 286 nm. […] A known mass of electrospun mat was dissolved in a known volume of methanol and diluted such that the expected concentration of API fell within the concentration ranges covered by the standard curves. From the resulting measured concentration, the mass of API in the original mat sample, and thus the weight percent API in the electrospun mat was calculated. Three measurements were made per API and were averaged to give the reported value.

[3] = USP dissolution test of compressed electrospun tablets vs compressed powder tablets; settings: USP apparatus II, 50 rpm, 37° C., 900 mL; 0.1 N HCl for ABZ, 0.1 M Phosphate buffer for FAM; 150 mg 9 mm tablets, 1:2 API:PVP
Method: Powder tablets were prepared by weighing out 50 mg API powder and 100 mg PVP powder, mixing for 1 min, and pressing into 9 mm tablets using the same press with the same insertion depth. The electrospun tablets were compared to the compressed powder tablets for analysis. […] Dissolution was performed using a Varian VK 7025 dissolution bath (Agilent, Santa Clara, Calif.) and a Cary 50 Bio UV spectrophotometer (Agilent, Santa Clara, Calif.). For ABZ the standard USP methods were used with 900 mL 0.1 N HCl media, apparatus II, 50 rpm paddle speed and a temperature of 37° C. For FAM standard USP methods were used with 900 mL 0.1 M Phosphate buffer media, apparatus II, 50 rpm paddle speed, and a temperature of 37° C. Measurements were made every minute for 90 minutes by probes inserted in the bath and connected to the spectrophotometer by fiber optic cables.

Row | SMILES | polymorphism of the API through the electrospinning process [1] | average loading of API in the electrospun fibers [2] | dissolution amount, electrospun formulation relative to compressed powder tablet [3]
1 | NC(N)=Nc1nc(CSCCC(N)=NS(N)(=O)=O)cs1 [FAM, famotidine] | retained their polymorphism throughout processing | 26 wt % | more than twice the dissolution amount
2 | CCCSc1ccc2nc(NC(=O)OC)[nH]c2c1 [ABZ, albendazole] | retained their polymorphism throughout processing; also recorded: not significantly affected | 31 wt % | more than twice the dissolution amount

Source: patent publication US20130295143A1, “ELECTROPROCESSING OF ACTIVE PHARMACEUTICAL INGREDIENTS” (Massachusetts Institute of Technology, priority 2012, published 2013)
